Data as given in PMC6278656, “Synthesis and Biological Evaluation of Phaeosphaeride A Derivatives as Antitumor Agents” (Molecules, 2018).

How the values were obtained:
[1] = system: human colorectal cancer HCT-116 cells; test: MTT cytotoxicity assay, HCT-116; type: cell-based; details: for IC50: Homo sapiens, MTT, 72 h, n = 3, ± SD, read-out: Adhesive Cell Cultures, IC50 HCT-116
Experimental: (§1) All newly synthesized PPA derivatives 1–8 were evaluated for their anti-proliferative activity against human breast cancer MCF-7, human prostate adenocarcinoma PC-3, human colorectal cancer HCT-116, human lung cancer A549, human chronic myelogenous leukemia K562, human acute monocytic leukemia THP-1, human multiple myeloma RPMI8226, human acute T-cell leukemia Jurkat, human multiple myeloma NCI-H929, and human embryonic fibroblasts HEF cell lines by MTT assays. All cells were incubated with different concentrations of PPA derivatives for 72 h, with etoposide and PPA used as reference compounds. The anticancer activity of the tested compounds was described as the concentration of drug inhibiting 50% cell growth IC50 (Table 1 and Table 2).
(§2) ^1H-NMR spectra were acquired on an AVANCE III 400 MHz NMR spectrometer (Bruker, Rheinstetten, Germany) in CDCl3. Optical rotations were acquired on a Polaar 3005 Polarimeter (Optical Activity, Huntingdon, Great Britain) using a 2.5 cm cell with a Na 589 nm filter and the concentration of samples was denoted as c. Mass spectra data were acquired on a TSQ Quantum Access Max Mass spectrometer (Thermo Fisher Scientific, Waltham, MA, USA). High-resolution mass spectra (HRMS) were acquired on a LTQ Orbitrap Velos spectrometer (Thermo Scientific) and on a Bruker MicrOTOF. FTIR spectra were acquired on an IR Affinity-1 spectrometer (Shimadzu, Thermo Scientific). Organic solvents used were dried by standard methods when necessary. Commercially available reagents were used without further purification. All reactions were monitored by TLC with silica gel coated plates (EMD/Merck KGaA, Darmstadt, Germany), with visualization by UV light and by charring with 0.1% ninhydrin in EtOH. Column chromatography was performed using Merck 60 Å 70–230 mesh silica gel. The optical density was determined using a Multiskan FC spectrophotometer (Thermo Scientific) at a wavelength of 540 nm when using the MTT assay.
(§3) MCF-7 (breast cancer), PC-3 (prostate adenocarcinoma), HCT-116 (colorectal cancer cell), A549 (lung cancer), K562 (chronic myelogenous leukemia), THP-1 (acute monocytic leukemia), and RPMI8226 (multiple myeloma), Jurkat (acute T-cell leukemia), HEF (human embryonic fibroblasts) was purchased from the Russian Academy of Sciences Cells Bank (Institute of Cytology of the Russian Academy of Sciences, Saint Petersburg, Russian Federation). Multiple myeloma cell line NCI-H929 was purchased from ATCC (USA). The MCF-7, A549 and HEF (human embryonic fibroblasts) were cultured in DMEM medium. Other cell lines were cultured in RPMI1640 medium, (PanEco, Russia) supplemented with 10% fetal bovine serum (GE Healthcare LifeSciences, São Paulo, Brazil), and gentamicin at a concentration of 40 μg/mL and cultured at 37 °C in a humidified atmosphere containing 5% CO2. All experiments were performed with cells at passages 3 to 7 in the logarithmic phase of growth.
(§4) Cells were seeded into 96-well plates of 5 × 10^3 for adhesive cultures and 20 × 10^3 for suspension cultures per well in 90 μL and 135 μL of culture medium, respectively. The test substances were dissolved in DMSO to a concentration of 1 × 10^−2 M. For subsequent dilution of the substances, a serum-free culture medium was used as the diluent. Final concentration of DMSO in wells was no more than 1%. […] Substances were added to the cells in 3–4 replicates after 24 h for adhesive cultures and immediately for suspension cultures. 10–15 μL of serum-free medium was added to the control wells with non-exposed cells. Cells were cultured for 72 h at 37 °C in an atmosphere of 5% CO2.

[2] = system: human prostate adenocarcinoma PC-3 cells; test: MTT cytotoxicity assay, PC-3; type: cell-based; details: for IC50: Homo sapiens, MTT, 72 h, n = 3, ± SD, read-out: Adhesive Cell Cultures, IC50 PC-3
Experimental: as §1, §2, §3, §4

[3] = system: human breast cancer MCF-7 cells; test: MTT cytotoxicity assay, MCF-7; type: cell-based; details: MCF7, 72 h, n = 3, ± SD, read-out: Adhesive Cell Cultures, IC50 MCF-7
Experimental: as §1, §2, §3, §4

[4] = system: human lung cancer A549 cells; test: MTT cytotoxicity assay, A549; type: cell-based; details: 72 h, n = 3, ± SD, read-out: Adhesive Cell Cultures, IC50 A549
Experimental: as §1, §2, §3, §4

[5] = system: human embryonic fibroblasts HEF; test: MTT cytotoxicity assay, HEF (control cells); type: cell-based; details: Fibroblast, 72 h, n = 3, ± SD, read-out: Adhesive Cell Cultures, IC50 HEF
Experimental: as §1, §2, §3, §4

[6] = system: human chronic myelogenous leukemia K562 cells; test: MTT cytotoxicity assay, K562; type: cell-based; details: for IC50: Homo sapiens, MTT, 72 h, n = 3, ± SD, read-out: Suspension Cell Cultures, IC50 К562
Experimental: as §1, §2, §3, §4

[7] = system: human multiple myeloma NCI-H929 cells; test: MTT cytotoxicity assay, NCI-H929; type: cell-based; details: for IC50: Homo sapiens, MTT, 72 h, n = 3, ± SD, read-out: Suspension Cell Cultures, IC50 NCI-Н929
Experimental: as §1, §2, §3, §4

[8] = system: human acute T-cell leukemia Jurkat cells; test: MTT cytotoxicity assay, Jurkat; type: cell-based; details: for IC50: Homo sapiens, MTT, 72 h, n = 3, ± SD, read-out: Suspension Cell Cultures, IC50 Jurkat
Experimental: as §1, §2, §3, §4

[9] = system: human acute monocytic leukemia THP-1 cells; test: MTT cytotoxicity assay, THP-1; type: cell-based; details: 72 h, n = 3, ± SD, read-out: Suspension Cell Cultures, IC50 THP-1
Experimental: as §1, §2, §3, §4

[10] = system: human multiple myeloma RPMI8226 cells; test: MTT cytotoxicity assay, RPMI8226; type: cell-based; details: for IC50: Homo sapiens, RPMI-8226, MTT, 72 h, n = 3, ± SD, read-out: Suspension Cell Cultures, IC50 RPMI8228
Experimental: as §1, §2, §3, §4

[11] = Acute intraperitoneal toxicity study; type: in vivo; details: male, outbred (printed 'outbreed'), mouse, in vivo, ip, mice, single i.p. injection, 14 days
Experimental: (§5) Six to eight-week-old outbreed male mice were purchased from the Rappolovo Animal Farm of the Russian Academy of Sciences. Animals were group housed in solid bottom polycarbonate cages (3–5 animals/cage) and provided with sterilized pelleted food and pure water ad libitum.
(§6) Thirty mice were randomly assigned to the acute toxicity study. Animals in experimental groups ([…]) received a dose formulation containing compound 6 solution in 5% DMSO at various dosages (8.25, 82.5 and 200 mg/kg) via single i.p. injection. Mice in the control group treated with vehicle (5% DMSO). The location of the i.p. injection was in the lower left abdominal quadrant. […] After treatments, the following parameters and end points were evaluated for 14 days: mortality, clinical signs, body weight, food consumption, locomotion, salivation, diarrhea, and lethargy. The maximum tolerated dose in this study is defined as the highest dose that will be tolerated and not produce major life-threatening toxicity for the study duration. All experimental procedures were performed according to the principles and guidelines for the care and use of laboratory animals. The animals were sacrificed by carbon dioxide asphyxiation and cervical dislocation. All efforts were made to minimize suffering. Post mortem evaluation included gross examination for all animals at terminal necropsy and calculation of organ mass coefficients. No histopathological examinations were performed.

mice [12] = test: Acute intraperitoneal toxicity study; type: in vivo
Experimental: as §5, §6

mice [13] = system: mice; set-up: method as in RTECS # KC0190000; details: i.p., ref RTECS # KC0190000; cited from earlier work

Row | Compound | IC50 [1] | IC50 [2] | IC50 [3] | IC50 [4] | IC50 [5] | IC50 [6] | IC50 [7] | IC50 [8] | IC50 [9] | IC50 [10] | further results
1 | C=C1C2=C(C(=O)N1OC)[C@@H](N1CCCC1)[C@@](C)(O)[C@H](CCCCC)O2 [Compound 6, (2S,3R,4R)-3-Hydroxy-6-methoxy-3-methyl-7-methylene-2-pentyl-4-pyrrolidin-1-yl-3,4,6,7-tetrahydro-pyrano[2,3-c]pyrrol-5(2H)-one] | 470 ± 10 nM | 200 ± 70 nM | 3250 ± 640 nM | 10100 ± 500 nM | 4000 ± 170 nM | 540 ± 30 nM | 230 ± 20 nM | 550 ± 290 nM | 2050 ± 210 nM | 630 ± 230 nM | fold increase in anticancer activity comparative to etoposide [1]: 47 fold; fold stronger than the reference compound PPA [1]: 51 fold; fold increase in anticancer activity comparative to etoposide [2]: 13.5 fold; fold stronger than the reference compound PPA [2]: 160 fold; fold increase in anticancer activity comparative to etoposide [6]: 16 fold; fold stronger than the reference compound PPA [6]: 37 fold; fold increase in anticancer activity comparative to etoposide [7]: 4 fold; fold stronger than the reference compound PPA [7]: 28 fold; fold increase in anticancer activity comparative to etoposide [8]: 1.5 fold; fold stronger than the reference compound PPA [8]: 17.5 fold; fold increase in anticancer activity comparative to etoposide ([10]; RPMI8226): 7 fold; fold stronger than the reference compound PPA ([10]; RPMI8226): 14.5 fold; LD50 at 14 days ([11]; not determined, believed to be more than, read-out: Median lethal dose (LD50)): > 200 mg/kg; MTD at 14 days ([11]; read-out: Maximum tolerated dose): ≥ 82.5 mg/kg; toxicity in vivo comparative to etoposide (mice [12]; mice, i.p.): less toxic; effect on mean body weight or mass coefficients (spleen, liver, heart, kidney, lung, thymus, and adrenal) (mice [12]; mouse, in vivo, ip): No effect; gross abnormalities in the organs tested (mice [12]; mouse, in vivo, ip): No gross abnormalities
2 | COc1cc([C@@H]2c3cc4c(cc3[C@@H](O[C@@H]3O[C@@H]5CO[C@@H](C)O[C@H]5[C@H](O)[C@H]3O)[C@H]3COC(=O)[C@H]23)OCO4)cc(OC)c1O [Etoposide, etoposide, reference compound] | 22000 ± 1100 nM | 2700 ± 50 nM | 9600 ± 270 nM | > 100000 nM | > 100000 nM | 8470 ± 950 nM | 920 ± 30 nM | 880 ± 740 nM | 830 ± 210 nM | 4600 ± 280 nM | Intraperitoneal LD50 (mice [13]): 64 mg/kg
